Patent US4551547A, “Biocidal 2-aryl-1, 3-cyclopentanedione enol ester compounds” (Union Carbide Corporation, priority 1983, dated 1985)

How the values were obtained:
[1] = tested on: two-spotted mite (adults and nymphal stages); experiment: Mite Foliage Spray Test (adults and nymphs); type: in vivo, Tetranychus urticae (Koch); set-up: key to Miticidal, Adult: A: Excellent Control; B: Partial Control; No Control; settings: Table II; mortality count after four days
Description: Suspensions of the test compounds were prepared by dissolving one gram of compound in 50 milliliters of acetone in which had been dissolved 0.1 gram (10 percent of the weight of compound) of an alkylphenoxyethanol sufactant, as an emulsifying or dispersing agent. The resulting solution was mixed into 160 milliliters of water to give roughly 200 milliliters of a suspension containing the compound in finely divided form. The thus prepared stock suspension contained 0.5 percent by weight of compound. The test concentrations employed in the tests described below were obtained by diluting the stock suspension with water. The test procedures were as follows: Adults and nymphal stages of the two-spotted mite (Tetranychus urticae (Koch)), reared on Tender-green beam plants at 80±5° F. and 50±5 percent relative humidity, were the tests organisms. Infested leaves from a stock culture were placed of the primary leaves of two bean plants six to eight inches in height, growing in a two-and-a-half inch clay pot. 150-200 Mites, a sufficient number for testing, transferred from the excised leaves to the fresh plants in a period of twenty-four hours. Following the twenty-four hour transfer period, the excised leaves were removed from the infested plants. The test compounds were formulated by diluting the stock suspension with water to provide suspensions containing the desired amount of test compound per million parts of final formulation. The potted plants (one pot per compound) were placed on a revolving turntable and sprayed with 100-110 milliliters of tests compound formulation by use of a DeVilbis spray gun set at 40 psi, air pressure. This application, which lasted 30 seconds, was sufficient to wet the plants to run-off. As a control, 100-110 milliliters of a water solution containing acetone and emulsifier in the same concentrations as the test compound formulation, but containing no test compound, were also sprayed on infested plants. The sprayed plants were held at 80±5° F. and 50±5 percent relative humidity for four days, after which, a mortality count of motile forms was made on the leaves of the test plants. Any individual which was capable of locomotion upon prodding was considered living. In these tests the pesticidal activity of the compounds against mites and mite eggs was rated as follows: Tests were conducted in accordance with the procedures given at pages 17 to 21 supra. The results are expressed in the same manner as used in Table II, except with respect to miticidal activity. For mite adult and mite egg comparison purposes, results are given in parts per million (ppm) required for a 50 percent kill of mites or eggs, respectively.

[2] = tested on: Soybean; experiment: Post-emergent herbicidal test, soybean; type: in vivo; set-up: key: 1: no perceptible injury; 2: intermediate degrees of injury; 3: intermediate degrees of injury; 4: intermediate degrees of injury; 5: the plant was dead; settings: Table II; 2500 parts per million, after ten days
Description: (§1) Suspensions of the test compounds were prepared by dissolving one gram of compound in 50 milliliters of acetone in which had been dissolved 0.1 gram (10 percent of the weight of compound) of an alkylphenoxyethanol sufactant, as an emulsifying or dispersing agent. The resulting solution was mixed into 160 milliliters of water to give roughly 200 milliliters of a suspension containing the compound in finely divided form. The thus prepared stock suspension contained 0.5 percent by weight of compound. The test concentrations employed in the tests described below were obtained by diluting the stock suspension with water. The test procedures were as follows:
(§2) Experiments were also conducted to determine the phytotoxicity of representative compositions with respect to healthy fresh plants. Solutions of the compounds were prepared as described above to provide a concentration of 2500 parts per million of the test compound. The test plants were sprayed in accordance with the procedure described above for the Mite Foliage Spray Test so as to deliver approximately 100 milliliters of test solutions to the leaves of each plant tested. The sprayed plants and controls were set aside for approximately one hour to allow the solutions to dry and were then placed in the greenhouse. After ten days the plants were visually inspected to determine the extent of foliage injury. A rating of 1 indicates no perceptible injury; 5 indicates the plant was dead and ratings of 2, 3 and 4 indicate intermediate degrees of injury based upon the number and extent to which leaves were injured.

[3] = tested on: Corn; experiment: Post-emergent herbicidal test, corn; type: in vivo; set-up: key: 1: no perceptible injury; 2: intermediate degrees of injury; 3: intermediate degrees of injury; 4: intermediate degrees of injury; 5: the plant was dead; settings: Table II; 2500 parts per million, after ten days
Description: as §1, §2

[4] = tested on: Crabgrass; experiment: Preliminary herbicide seed germination test (pre-emergent), crabgrass; type: in vivo, Digitaria sanguinalis; set-up: key: 5: no seedling emerged; 4: few seedlings emerged and/or very severe stunting; 3: moderate reduction in stand and/or moderate stunting.; 2: very slight reduction in stand and/or slight stunting; 1: no injury, seedlings appear no different with respect to stand or growth than untreated controls; settings: Table II; ten to twelve days after application
Description: as §1
The following seeds were used in this test:
Crabgrass--Digitaria sanguinalis
Two […] mixtures were prepared as follows:
Each of the above mixtures was rolled separately in 5 gallon containers for approximately one-half hour on ball mill to insure uniform mixing of seeds and soil. For each compound four 3-inch pots were filled with soil to within 11/2 inches of top of pots. To two of these pots were added 70 cc. of Mixture I. To the remaining 2 pots were added 70 cc. of Mixture II. The seed-soil mixture was tamped firmly, and the pots were removed to the greenhouse and watered lightly. About 2 hours after planting, 25 milliliters of the test formulation were added to one pot containing Mixture I and one pot containing Mixture II. An equal volume of a water solution containing acetone and an emulsifier in the same concentration as the herbicidal mixture but without the candidate herbicide was also added to each of the soil-seed mixtures. These pots are used as check or control units. The test compounds were formulated by diluting the stock suspension with water to obtain the desired concentration of the compound in parts per million of the final formulation. Each compound was tested at the same concentration. […] Ratings were made according to the following designations: […]

CCCCC(CC)C(=O)OC1=C(c2ccccc2Cl)C(=O)CC1 (stereo not drawn) [Compound 1]
Miticidal, Adult [1]: A | Post-emergent Herbicidal, Soybean [2]: 3 | Post-emergent Herbicidal, Corn [3]: 4 | Pre-emergent Herbicidal, Crabgrass [4]: 5

O=C1CCC(OC(=O)c2ccccc2)=C1c1ccccc1Cl [Compound 2]
Miticidal, Adult [1]: A | Post-emergent Herbicidal, Soybean [2]: 2 | Post-emergent Herbicidal, Corn [3]: 3 | Pre-emergent Herbicidal, Crabgrass [4]: 3

CC(=O)OC1=C(c2ccc(Cl)cc2Cl)C(=O)CC1 [Compound 3]
Miticidal, Adult [1]: A | Post-emergent Herbicidal, Soybean [2]: 2 | Post-emergent Herbicidal, Corn [3]: 3

CC(C)C(=O)OC1=C(c2ccc(Cl)cc2Cl)C(=O)CC1 [Compound 4]
Miticidal, Adult [1]: B | Post-emergent Herbicidal, Soybean [2]: 2 | Post-emergent Herbicidal, Corn [3]: 4

CCCCC(CC)C(=O)OC1=C(c2ccc(Cl)cc2Cl)C(=O)CC1 (stereo not drawn) [Compound 5]
Miticidal, Adult [1]: A | Post-emergent Herbicidal, Soybean [2]: 2 | Post-emergent Herbicidal, Corn [3]: 3

CCCCCCCCCCCCCCCC(=O)OC1=C(c2ccc(Cl)cc2Cl)C(=O)CC1 [Compound 6]
Miticidal, Adult [1]: A | Post-emergent Herbicidal, Soybean [2]: 1 | Post-emergent Herbicidal, Corn [3]: 1

CCCCC(CC)C(=O)OC1=C(c2ccccc2C)C(=O)CC1 (stereo not drawn) [Compound 7]
Miticidal, Adult [1]: A | Post-emergent Herbicidal, Soybean [2]: 2 | Post-emergent Herbicidal, Corn [3]: 2 | Pre-emergent Herbicidal, Crabgrass [4]: 3

CCCCCCCCCCCCCCCC(=O)OC1=C(c2ccccc2C)C(=O)CC1 [Compound 8]
Miticidal, Adult [1]: A | Post-emergent Herbicidal, Soybean [2]: 3 | Post-emergent Herbicidal, Corn [3]: 3 | Pre-emergent Herbicidal, Crabgrass [4]: 2

CCCCC(CC)C(=O)OC1=C(c2ccc(C)cc2C)C(=O)CC1 (stereo not drawn) [Compound 9, 3-(2-ethylhexanoyloxy)-2-(2', 4'-dimethylphenyl)-2-cyclopentenone]
Miticidal, Adult [1]: A | Post-emergent Herbicidal, Soybean [2]: 1 | Post-emergent Herbicidal, Corn [3]: 3 | Pre-emergent Herbicidal, Crabgrass [4]: 4

Cc1ccc(C2=C(OC(=O)c3ccccc3)CCC2=O)c(C)c1 [Compound 10]
Miticidal, Adult [1]: C | Post-emergent Herbicidal, Soybean [2]: 1 | Post-emergent Herbicidal, Corn [3]: 3 | Pre-emergent Herbicidal, Crabgrass [4]: 2

CC(=O)OC1=C(c2cc(C)ccc2C)C(=O)CC1 [Compound 11]
Miticidal, Adult [1]: A | Post-emergent Herbicidal, Soybean [2]: 2 | Post-emergent Herbicidal, Corn [3]: 2 | Pre-emergent Herbicidal, Crabgrass [4]: 1

Cc1ccc(C)c(C2=C(OC(=O)C(C)C)CCC2=O)c1 [Compound 12]
Miticidal, Adult [1]: B | Post-emergent Herbicidal, Soybean [2]: 3 | Post-emergent Herbicidal, Corn [3]: 2 | Pre-emergent Herbicidal, Crabgrass [4]: 1

CCCCC(CC)C(=O)OC1=C(c2cc(C)ccc2C)C(=O)CC1 (stereo not drawn) [Compound 13]
Miticidal, Adult [1]: A | Post-emergent Herbicidal, Soybean [2]: 3 | Post-emergent Herbicidal, Corn [3]: 2 | Pre-emergent Herbicidal, Crabgrass [4]: 1
